# According to the NIST ThermoML archive (doi:10.1021/je020115d):
# ± gives the expanded uncertainty stated by the source.
# Conditions: Liquid
smiles,measurement,setting,value
CCC [propane],vapor or sublimation pressure,277.17 K,536 ± 1 kPa
same,vapor or sublimation pressure,283.22 K,638 ± 2 kPa
same,vapor or sublimation pressure,288.26 K,734 ± 2 kPa
same,vapor or sublimation pressure,293.27 K,838 ± 2 kPa
same,vapor or sublimation pressure,298.3 K,955 ± 2 kPa
same,vapor or sublimation pressure,302.27 K,1055 ± 2 kPa
same,vapor or sublimation pressure,308.8 K,1236 ± 2 kPa
same,vapor or sublimation pressure,311.8 K,1326 ± 2 kPa
same,vapor or sublimation pressure,313.24 K,1370 ± 2 kPa
same,vapor or sublimation pressure,318.22 K,1537 ± 3 kPa
same,vapor or sublimation pressure,323.22 K,1716 ± 3 kPa
same,vapor or sublimation pressure,328.26 K,1911 ± 3 kPa
same,vapor or sublimation pressure,333.29 K,2120 ± 3 kPa
same,vapor or sublimation pressure,338.31 K,2346 ± 4 kPa
same,vapor or sublimation pressure,343.26 K,2591 ± 4 kPa
same,vapor or sublimation pressure,348.31 K,2852 ± 5 kPa
same,vapor or sublimation pressure,353.41 K,3134 ± 5 kPa
FCF [difluoromethane],vapor or sublimation pressure,283.19 K,1111 ± 2 kPa
same,vapor or sublimation pressure,288.21 K,1286 ± 2 kPa
same,vapor or sublimation pressure,293.24 K,1481 ± 3 kPa
same,vapor or sublimation pressure,298.26 K,1697 ± 3 kPa
same,vapor or sublimation pressure,303.27 K,1935 ± 3 kPa
same,vapor or sublimation pressure,308.28 K,2197 ± 4 kPa
same,vapor or sublimation pressure,313.3 K,2485 ± 4 kPa
same,vapor or sublimation pressure,318.28 K,2801 ± 5 kPa
same,vapor or sublimation pressure,323.3 K,3147 ± 5 kPa
same,vapor or sublimation pressure,328.31 K,3526 ± 6 kPa
same,vapor or sublimation pressure,343.26 K,4892 ± 8 kPa
